In ChEMBL document CHEMBL1150439, “Synthesis and evaluation of dual domain macrocyclic FKBP12 ligands” (Bioorg Med Chem Lett, 1994):

Each compound was assayed against Peptidyl-prolyl cis-trans isomerase FKBP1A (Homo sapiens, UniProt P62942) (assay: Binding affinity towards FK506 binding protein 12 as measured by displacement of a radiolabeled FK506 analogue).
Chain of Peptidyl-prolyl cis-trans isomerase FKBP1A (P62942 whole entry): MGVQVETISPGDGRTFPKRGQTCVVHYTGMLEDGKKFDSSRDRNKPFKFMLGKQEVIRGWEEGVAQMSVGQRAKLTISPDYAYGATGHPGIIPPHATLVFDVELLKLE

Compound	Kd
C=CCC1/C=C(\C)CCOC(=O)OC(=O)C2CC[C@@](C)(O2)C(=O)C(=O)C(=O)OC(=O)C(=O)N2CCCC[C@H]2C(=O)O[C@H](CCc2cccnc2)[C@H](C)CCC1=O (some centres not stated)	8 µM
C=CCC1/C=C(\C)CCOC(=O)OC(=O)CCCCC(=O)C(=O)OC(=O)C(=O)N2CCCC[C@H]2C(=O)O[C@H](CCc2cccnc2)[C@H](C)CCC1=O (some centres not stated)	4.5 µM
C=CCC1/C=C(\C)CCOC(=O)OC(=O)C2CC[C@@H](O2)C(=O)C(=O)C(=O)OC(=O)C(=O)N2CCCC[C@H]2C(=O)O[C@H](CCc2cccnc2)[C@H](C)CCC1=O (some centres not stated)	0.4 µM
C=CCC1/C=C(\C)CCOC(=O)OC(=O)CCCC(=O)C(=O)OC(=O)C(=O)N2CCCC[C@H]2C(=O)O[C@H](CCc2cccnc2)[C@H](C)CCC1=O (some centres not stated)	2 µM
C=CCC1/C=C(\C)CCOC(=O)OC(=O)CCC(=O)C(=O)OC(=O)C(=O)N2CCCC[C@H]2C(=O)O[C@H](CCc2cccnc2)[C@H](C)CCC1=O (some centres not stated)	5.5 µM
C=CCC1/C=C(\C)CCCOC(=O)OC(=O)C2CC[C@@H](O2)C(=O)C(=O)C(=O)OC(=O)C(=O)N2CCCC[C@H]2C(=O)O[C@H](CCc2cccnc2)[C@H](C)CCC1=O (some centres not stated)	0.2 µM
C=CCC1/C=C(\C)CCCOC(=O)OC(=O)C2CC[C@@](C)(O2)C(=O)C(=O)C(=O)OC(=O)C(=O)N2CCCC[C@H]2C(=O)O[C@H](CCc2cccnc2)[C@H](C)CCC1=O (some centres not stated)	4 µM
